Assay results published in article PMC12598851, “Exploiting Avidity Effects for the Discovery of Low Affinity Protein-Binding Fragments” (Journal of Medicinal Chemistry, 2025).
“And” between values parts separate entries of the source, which are not always exact repeats. Identical values can stand only once. “Also recorded” adds a separate entry of the source.

How the values were obtained:
[1] = target: T1, tetrameric streptavidin (SA-647) (Streptomyces avidinii, UniProt P22629); experiment: Bead pull-down: SA-647 retained by compound-displaying TentaGel beads, plate reader; type: binding
T1 construct: purchased ThermoFisher S3235
Description: Compounds 2 and 3 were then constructed on 10 μm TentaGel beads via straightforward solid-phase synthesis, along with acetylated beads, which as a “blank” (Figure c). TentaGel beads consist of an amino-polystyrene core onto which is grafted a thick layer of amine-terminated PEG chains. An additional mini-PEG spacer was incorporated prior to coupling the compounds to further improve spatial accessibility and aqueous display of the compounds (see Experimental Section for detailed synthesis). The beads were incubated with AlexaFluor 647-conjugated SA (SA-647) in phosphate-buffered saline supplemented with 0.05% Tween 20 (PBST) for 1 h at room temperature in the dark. Following incubation, the beads were washed thoroughly (see Experimental Section for a detailed protocol), then resuspended in PBST. The amount of fluorescent SA retained by the resin was analyzed using a Tecan multiwell plate reader equipped with appropriate excitation and emission filters (excitation at 650 nm, emission at 665 nm).
General notes: • At each step, contents were mixed by pipetting up and down 3–5 times. • All steps following the addition of SA-647 were conducted in the dark. • SA-647 and mSA-647 were purchased from commercial sources; (SA-647: ThermoFisher cat#S3235, mSA-647: Millipore SAE178).
A 96-well Multiscreen hydrophilic assay plate (MilliporeSigma, MSBVN12) was activated by treating each well with 150 μL of 70% (v/v) ethanol in water. The solvent was removed under vacuum, and the wells were washed with PBST (3 × 150 μL). Fresh PBST (150 μL) was then added to each well.
The plate was drained and washed again with PBST (3 × 150 μL), followed by the addition of 150 μL PBST per well. Plates were shaken overnight at ambient temperature on an orbital plate shaker.
The next day, wells were drained and incubated with 150 μL of a 1:1 (v/v) solution of PBST:PBS blocking buffer (Thermo Scientific, 37538) for 1 h at room temperature. After removal of the blocking buffer, 100 μL PBST was added to each well and mixed thoroughly. A 20 μL aliquot from each well was transferred to a black 384-well flat-bottom plate (Corning, 3820) for background (blank) measurements.
The remaining PBST was removed, and the beads were incubated with SA-647 (500 nM in 1:1 PBST/blocking buffer, 150 μL per well) for 1 h at room temperature. After incubation, wells were washed with PBST while shaking (3 × 20 min). A final 150 μL PBST wash was performed and drained. Fresh PBST (80 μL) was added to each well, and the contents were transferred to labeled PCR tubes. Samples were briefly vortexed and mixed by pipetting.
Each sample was transferred to a black 384-well plate in triplicate (3 × 20 μL per well). The plate was sealed with a foil sticker and centrifuged at 250g for 1 min. Fluorescence intensity was measured using a TECAN plate reader. Background fluorescence (from blank wells) was subtracted prior to further data analysis.

[2] = target: T2, biotin-binding surface of SA (Streptomyces avidinii, UniProt P22629); experiment: Competition assay with biotin on beads; details: SA-647 500 nM pretreated with biotin 10 μM, 30 min
T2 construct: purchased ThermoFisher S3235
Method: To determine if ligand 2 interacts with the biotin-binding surface of SA, we preincubated SA-647 with excess biotin and repeated the binding assay.
This assay was conducted following the exact same procedure described above using two samples: SA-647 (500 nM) alone, and SA-647 (500 nM) that had been pretreated with biotin (10 μM) for 30 min at room temperature. Each sample was added to separate wells of a microtiter plate.

[3] = target: T3, glutathione S-transferase (GST) (Schistosoma japonicum, UniProt P08515); experiment: Bead pull-down of compound 2 beads with GST as off-target control; type: binding; details: GST 1 μM, stained with labeled antibody
T3 construct: His6 (C); made in house; host or cells: E. coli BL21 (DE3) codon plus RP

[4] = target: T1, tetrameric streptavidin (SA-647); experiment: Bead pull-down: SA-647 retained by compound-displaying TentaGel beads, plate reader; type: binding; details: SA-647 50 nM, about 14,000-fold below the intrinsic KD

CC(=O)N(Cc1cccnc1)Cc1nc(C(=O)N(C)CC(=O)NCCOCCOCC(=O)NCC(N)=O)cs1 [Compound 2] was tested. Which “Fluorescence intensity, Average” value ([1]; SA-647 500 nM, 12 replicates, after background subtraction, Z' calculation) did it give?
Its value is 14647.

And the “binding of SA-647 to bead-displayed compound (fluorescence)” value ([1]; SA-647 500 nM, 1 h, PBST, room temperature, after washing)?
Its value is “readily detectable; also recorded: strong binding”.

What about the “Fluorescence intensity, individual replicate” value ([1]; SA-647 500 nM, replicates 1-12, after background subtraction, Z' calculation) of the same molecule?
Its value is 15421 and 12975 and 13104 and 12492 and 14298 and 14769 and 15364 and 16337 and 17794 and 14546 and 14869 and 13797.

What about the “fluorescence after 24 h in buffer lacking protein compared with directly after washing” value ([1]; beads washed, resuspended in PBST lacking protein for 24 h) of the same molecule?
The value was “almost identical”.

What about the “retained SA-647 at 30% ligand density” value ([1]; compound linked to only 30% of the sites on the beads, SA-647 500 nM) of the same molecule?
Its value is “almost undetectable above background”.

And the “dependence of SA-647 retention on ligand density” value ([1]; site functionalization 100% to 5%, SA-647 500 nM)?
Its value is “strongly density-dependent”.

And the “retention of SA-647 preincubated with excess biotin” value [2]?
The value was “ablated retention”.

And the “binding of GST to bead-displayed compound” value [3]?
The value was “No detectable signal”.

And the “binding of SA-647 to bead-displayed compound at low protein concentration” value [4]?
The value was “above background binding was readily detectable”.
